In US8404225B2, “Contact sex pheromone component of the Emerald Ash Borer Agrilus planipennis Fairmaire (Coleoptera: Buprestidae)” (National Research Council of Canada, priority 2008, dated 2013):

What was measured:
[1] = tested on: brown Spruce Longhorn Beetle (BSLB); conditions: inventors' soon to be published research; cited from earlier work
[2] = tested on: feral EAB males (Agrilus planipennis); assay: Behavioral field bioassay with dummy females (feral male contact and mating behaviour); assay type: in vivo
Description: Preparation of dummy females. A total of 78 EAB females that emerged from 10-15 Jul. 2008 were reared for the field bioassay. Female EAB were reared in the quarantine facilities, as described above, until the age of 14 days, when they were frozen. Prior to the field bioassay, females were removed from the freezer and thawed for 2-3 h. For 52 of the females, each female was individually rinsed in 1 ml of hexane for about 2 min. Females were then allowed to dry for a minimum of 30 min before being rinsed again. Females were rinsed a total of three times for 2 min each time and left to dry overnight after the final rinsing. All 78 females were then individually pinned through the right elytra at its base; the heads of the pins were then snipped off such that the end of the pin was only about 1 mm above the surface of the female's body and thus would not interfere with approaches by feral male EAB. Twenty-six of the rinsed females were then treated with 1 μl of racemic 9-methyl pentacosane (ca. 5 mg/ml; one female equivalent), in solution with hexane, and allowed to dry. This divided the 78 females into three treatment groups (unwashed, washed, and washed then treated). The treatment groups were indicated by pinning a small paper insect ‘point’ underneath the female that was not visible from above. The points were colored white (unwashed), yellow (washed) or blue (washed then treated). […] Females were kept at 3-4° C. in a fridge for 2 days until used in the bioassay and were transported to the field in a cooler.
Behavioral field bioassay. The field bioassay was conducted from 7-11 Jul. 2008 at a site about 1.8 km northeast of Port Lambton, ON (42° 40.16′ N, 82° 29.56′ W). […] Dummy females were pinned to foliage on epicormic shoots of infested ash trees, growing from the base of the tree up to about 1.5 m above the ground. Females were placed and removed from foliage by grasping the pin underneath the female with tweezers and were never touched directly to avoid cross-contamination. Trees were chosen based on the presence of both epicormic shoots and feral EAB males on the foliage. Dummy females were placed in a triangle shape in groups of three (one of each treatment) about 20-30 cm apart. All females were pinned on south-facing foliage so that they would be in direct sunlight. From nine to 21 females were set up at different times on different trees, based on the amount of foliage available.
Observations of dummy females began once all females were established on the foliage, and lasted for about 1 h per observation session with breaks of 5-10 min in between observation sessions. We recorded the time of arrival of each male observed to land on a female and then the time of departure for that same male to obtain its total time spent in contact with a given female. The locations of the various treatments were not recorded, so the observations on time spent in contact by males was collected by observers who were unaware of the treatment. The treatment group (unwashed, treated, washed) was then recorded by checking for the presence of the colored insect point under the female's abdomen after the male had flown away. […]
The amount of time individual males spent in contact, and the percentage of that time spent attempting to mate, with females of the three different treatments were analyzed by one-way ANOVA after logarithmic transformation of data to meet the assumptions of normality of data and equality of variance; means were compared using the Holm-Sidak test. […]

Row | Structure (SMILES) | activity as a contact sex pheromone [1] | number of wild males landing on females ([2]; hexane-washed freeze-killed females treated with 1 μl racemic 9-methyl pentacosane (ca. 5 mg/ml; one female equivalent), field, about 40 h of observation) | percentage of contact time spent attempting to mate ([2]; subset of feral males (n=7 observations), one figure printed for unwashed and 9-Me-C25-treated females together, washed females about 20%) | contact and copulatory activity after reapplication to hexane-rinsed females ([2]; synthetic 9-Me-C25 reapplied, field bioassays) | time males spent on treated females compared with washed females ([2]; treated (n=27 observations) vs hexane-washed females (n=43), t=3.817, P=0.00004) | time males spent on treated females compared with unwashed females ([2]; treated (n=27 observations) vs unwashed females (n=36), t=0.138, P=0.89)
1 | CCCCCCCCCCCCCC[C@@H](C)CCCCCCCCCC (single isomer, unassigned) [11S-enantiomer] | demonstrated activity | – | – | – | – | –
2 | CCCCCCCCCCCCCCCCC(C)CCCCCCCC (racemic) [9-Me-C25, 9-methyl pentacosane] | – | 27 | 60%-70% | restored almost all contact and copulatory activity | significantly longer | slightly, but not significantly, less
